What follows are compounds tested against T1, Trp-p8 (Homo sapiens, UniProt Q7Z2W7, T58I) (assay: Cell viability (ATP) assay for Trp-p8 antagonists: protection of CHO/Trp-p8 cells from toxic control agonist D-1607). Details: Table 2, Formula VIII antagonists; 10 μM compound plus toxic concentration of control agonist D-1607, CHO/Trp-p8 cells, 37° C.; ATP level relative to DMSO.
T1 construct: expressed in transfected cells
T1 sequence (Q7Z2W7 whole entry T58I): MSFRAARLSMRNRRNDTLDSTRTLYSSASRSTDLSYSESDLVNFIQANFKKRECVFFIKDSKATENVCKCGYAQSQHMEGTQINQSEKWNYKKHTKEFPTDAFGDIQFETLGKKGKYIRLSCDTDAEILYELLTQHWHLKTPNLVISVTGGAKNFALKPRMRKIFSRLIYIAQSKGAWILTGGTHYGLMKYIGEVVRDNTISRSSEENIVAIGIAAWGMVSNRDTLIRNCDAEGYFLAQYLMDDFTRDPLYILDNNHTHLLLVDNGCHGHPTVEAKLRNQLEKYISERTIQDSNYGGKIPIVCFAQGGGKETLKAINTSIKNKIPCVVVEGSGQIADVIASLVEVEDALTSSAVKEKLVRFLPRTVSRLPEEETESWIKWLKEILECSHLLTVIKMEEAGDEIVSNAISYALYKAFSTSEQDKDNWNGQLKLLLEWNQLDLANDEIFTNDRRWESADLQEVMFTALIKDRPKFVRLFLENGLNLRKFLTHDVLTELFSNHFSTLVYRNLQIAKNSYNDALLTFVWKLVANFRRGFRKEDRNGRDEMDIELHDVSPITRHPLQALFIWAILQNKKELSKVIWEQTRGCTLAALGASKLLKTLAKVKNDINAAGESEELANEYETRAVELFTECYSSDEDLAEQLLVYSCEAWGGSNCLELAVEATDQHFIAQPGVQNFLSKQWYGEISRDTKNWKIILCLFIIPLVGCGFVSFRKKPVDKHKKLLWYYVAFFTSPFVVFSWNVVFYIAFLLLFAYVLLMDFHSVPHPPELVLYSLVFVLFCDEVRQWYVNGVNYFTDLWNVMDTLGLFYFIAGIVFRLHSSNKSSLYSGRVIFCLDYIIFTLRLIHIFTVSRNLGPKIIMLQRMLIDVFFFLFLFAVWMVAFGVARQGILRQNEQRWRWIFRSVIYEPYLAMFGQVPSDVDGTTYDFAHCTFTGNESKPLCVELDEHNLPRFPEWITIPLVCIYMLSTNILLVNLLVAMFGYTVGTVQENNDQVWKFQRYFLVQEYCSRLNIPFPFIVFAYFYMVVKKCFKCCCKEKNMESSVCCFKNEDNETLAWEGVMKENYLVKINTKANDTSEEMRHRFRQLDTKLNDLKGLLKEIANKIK
Type: cell-based
Procedure: FIG. 4 is a graph depicting exemplary results from a primary screen for Trp-p8 antagonists using the ATP viability assay, described herein, with CHO/Trp-p8 cells at 37° C. CHO/Trp-p8 cells were exposed to compounds, at different concentrations, in 1% DMSO or 1% DMSO in combination with a toxic concentration of the Trp-p8 agonist 1607. The viability of cells was measured after 24-26 hours at 37° C. using the ATP assay.
As a primary screen for efficacy and specificity for agonists, both the non-transfected CHO and CHO/Trp-p8 cells were exposed to 10 μM of test compounds in 1% dimethylsulfoxide (DMSO) or 1% DMSO (control) in a 96-well black walled, black-bottomed, cell-culture treated plate. DMSO was the solvent for all of the compounds tested. After 24-26 hours at 37° C., the cells were lysed and ATP concentration determined via a chemiluminescence assay using a commercially available reagent kit—Cell Titer-Glo (Promega; Madison, Wis.). […] (EC50 is defined herein as the agonist concentration at which there is a 50% reduction in cell viability).
Trp-p8 antagonists were identified by employing a cell viability assay with CHO/Trp-p8 cells at 37° C. (see Example 7) with the following modification. Within the context of the present invention, compounds that protect CHO/Trp-p8 cells from the toxic effect of a control agonist thereby maintaining the viability of the CHO/Trp-p8 cell exposed to a Trp-p8 agonist is defined as antagonist. As a primary screen for antagonists, CHO/Trp-p8 cells were exposed to 10 μM of test compounds in 1% dimethylsulfoxide (DMSO) or 1% DMSO plus a toxic concentration of a control agonist, D-1607.
With `CC(C)[C@@H]1CC[C@@H](C)C[C@H]1NC(=O)N1CCc2ccccc2C1` [compound 1819] the “Relative Viability (%) at 10 μM” value was 86%. With `CC(C)[C@@H]1CC[C@@H](C)C[C@H]1NCc1c[nH]nc1-c1ccc(F)cc1` [compound 2752] the “Relative Viability (%) at 10 μM” value was 65%. In the case of `CCN(CCNC(=O)CO[C@@H]1C[C@H](C)CC[C@H]1C(C)C)c1cccc(C)c1` [compound 1937], the “Relative Viability (%) at 10 μM” value is reported as 101%. In the case of `CCCc1c(C(=O)N[C@@H]2C[C@H](C)CC[C@H]2C(C)C)cnn1-c1ccccc1` [compound 2067], the “Relative Viability (%) at 10 μM” value is reported as 105%. In the case of `CC(C)[C@@H]1CC[C@@H](C)C[C@H]1OCC(=O)N1CCCc2ccccc21` [compound 1696], the “Relative Viability (%) at 10 μM” value is reported as 82%. With `CC(C)[C@@H]1CC[C@@H](C)C[C@H]1NS(=O)(=O)c1c(Cl)cc(Cl)cc1Cl` [compound 2131] the “Relative Viability (%) at 10 μM” value was 59%. With `CCCCOc1ccc(-c2n[nH]cc2CN[C@@H]2C[C@H](C)CC[C@H]2C(C)C)cc1` [compound 2777] the “Relative Viability (%) at 10 μM” value was 83%. `CC(C)[C@@H]1CC[C@@H](C)C[C@H]1NC(=O)[C@@H]1C[C@H]1c1ccccc1` [compound 2013] was tested, and the “Relative Viability (%) at 10 μM” value was 95%. `COc1ccccc1CNC(=O)CO[C@@H]1C[C@H](C)CC[C@H]1C(C)C` [compound 1673] was tested, and the “Relative Viability (%) at 10 μM” value was 112%. With `CC(C)[C@@H]1CC[C@@H](C)C[C@H]1NC(=O)NC1CCCCCC1` [compound 1876] the “Relative Viability (%) at 10 μM” value was 86%. With `CC(C)[C@@H]1CC[C@@H](C)C[C@H]1OC(=O)N1CCc2ccccc21` [compound 1504] the “Relative Viability (%) at 10 μM” value was 90%. With `CC(C)[C@@H]1CC[C@@H](C)C[C@H]1OC(=O)N1c2ccccc2CC1C` (stereo partly drawn) [compound 1475] the “Relative Viability (%) at 10 μM” value was 100%. With `CC(C)[C@@H]1CC[C@@H](C)C[C@H]1OCC(=O)NCc1ccccc1Cl` [compound 1669] the “Relative Viability (%) at 10 μM” value was 86%. For `CC(C)[C@@H]1CC[C@@H](C)C[C@H]1OC(=O)N1CCc2ccccc2C1` [compound 1457], the “Relative Viability (%) at 10 μM” value was 112%. For `CC(C)[C@@H]1CC[C@@H](C)C[C@H]1NC(=O)N1c2ccccc2CC1C` (stereo partly drawn) [compound 1781], the “Relative Viability (%) at 10 μM” value was 91%. For `CC(C)CN(CCNC(=O)CO[C@@H]1C[C@H](C)CC[C@H]1C(C)C)CC(C)C` [compound 1920], the “Relative Viability (%) at 10 μM” value was 81%. For `CC(C)[C@@H]1CC[C@@H](C)C[C@H]1OCC(=O)N1c2ccccc2CC1C` (stereo partly drawn) [compound 1691], the “Relative Viability (%) at 10 μM” value was 92%. `Cc1ccnc(N(Cc2ccccc2)C(=O)[C@@H]2C[C@H](C)CC[C@H]2C(C)C)c1` [compound 2639] was tested, and the “Relative Viability (%) at 10 μM” value was 102%. With `CCCCOc1ccc(C(=O)N[C@@H]2C[C@H](C)CC[C@H]2C(C)C)cc1` [compound 2044] the “Relative Viability (%) at 10 μM” value was 94%. In the case of `CC(C)[C@@H]1CC[C@@H](C)C[C@H]1OCC(=O)NCCc1cccs1` [compound 1925], the “Relative Viability (%) at 10 μM” value is reported as 94%. In the case of `CC(C)[C@@H]1CC[C@@H](C)C[C@H]1NC(=O)COc1ccccc1[N+](=O)[O-]` [compound 2045], the “Relative Viability (%) at 10 μM” value is reported as 191%. In the case of `CCc1ccc(-c2n[nH]cc2CN[C@@H]2C[C@H](C)CC[C@H]2C(C)C)cc1` [compound 2754], the “Relative Viability (%) at 10 μM” value is reported as 74%. `CC(C)[C@@H]1CC[C@@H](C)C[C@H]1NC(=O)SCc1ccccc1` [compound 2291] was tested, and the “Relative Viability (%) at 10 μM” value was 87%. In the case of `CC(C)[C@@H]1CC[C@@H](C)C[C@H]1C(=O)Nc1ccc(S(=O)(=O)N2CCCCCC2)cc1` [compound 2865], the “Relative Viability (%) at 10 μM” value is reported as 91%. For `Cc1ccccc1CCNC(=O)CO[C@@H]1C[C@H](C)CC[C@H]1C(C)C` [compound 1923], the “Relative Viability (%) at 10 μM” value was 116%. `CC(C)[C@@H]1CC[C@@H](C)C[C@H]1NS(=O)(=O)c1cc(Br)c(Br)s1` [compound 2134] was tested, and the “Relative Viability (%) at 10 μM” value was 63%. `CC(NC(=O)CO[C@@H]1C[C@H](C)CC[C@H]1C(C)C)c1ccccc1` (stereo partly drawn) [compound 1664] was tested, and the “Relative Viability (%) at 10 μM” value was 107%. `CC(C)[C@@H]1CC[C@@H](C)C[C@H]1OC(=O)N1CCn2cccc2C1C` (stereo partly drawn) [compound 1940] was tested, and the “Relative Viability (%) at 10 μM” value was 110%. In the case of `CC(C)[C@@H]1CC[C@@H](C)C[C@H]1NC(=O)NCCN(Cc1ccccc1)C(C)C` [compound 1885], the “Relative Viability (%) at 10 μM” value is reported as 97%. With `CC(C)[C@@H]1CC[C@@H](C)C[C@H]1NC(=O)SCc1ccccc1Cl` [compound 2306] the “Relative Viability (%) at 10 μM” value was 92%. For `CC(C)[C@@H]1CC[C@@H](C)C[C@H]1NC(=O)NCCN1CCCc2ccccc21` [compound 1815], the “Relative Viability (%) at 10 μM” value was 87%. For `COc1ccc(C2c3[nH]c4ccccc4c3CCN2C(=O)[C@@H]2C[C@H](C)CC[C@H]2C(C)C)cc1CN1CCc2cc(OC)c(OC)cc2C1C` (stereo partly drawn) [compound 2676], the “Relative Viability (%) at 10 μM” value was 83%. With `CC(C)[C@@H]1CC[C@@H](C)C[C@H]1NC(=O)NCCC1=CCCCC1` [compound 1883] the “Relative Viability (%) at 10 μM” value was 84%. In the case of `CC(Oc1ccccc1)C(=O)N[C@@H]1C[C@H](C)CC[C@H]1C(C)C` (stereo partly drawn) [compound 2018], the “Relative Viability (%) at 10 μM” value is reported as 103%. In the case of `CC(C)[C@@H]1CC[C@@H](C)C[C@H]1OCC(=O)NCCC1=CCCCC1` [compound 1743], the “Relative Viability (%) at 10 μM” value is reported as 97%. With `COc1ccccc1NC(=O)CO[C@@H]1C[C@H](C)CC[C@H]1C(C)C` [compound 1709] the “Relative Viability (%) at 10 μM” value was 95%. For `CCCC1c2cccn2CCN1C(=O)O[C@@H]1C[C@H](C)CC[C@H]1C(C)C` (stereo partly drawn) [compound 1941], the “Relative Viability (%) at 10 μM” value was 98%. For `CC(C)[C@@H]1CC[C@@H](C)CC1C(=O)N1c2ccccc2CC1C` (stereo partly drawn) [compound 1588], the “Relative Viability (%) at 10 μM” value was 88%. `CC(C)[C@@H]1CC[C@@H](C)C[C@H]1NCc1c[nH]nc1-c1ccccc1` [compound 2745] was tested, and the “Relative Viability (%) at 10 μM” value was 62%. For `CC(C)[C@@H]1CC[C@@H](C)C[C@H]1OCC(=O)N1CCn2cccc2C1C` (stereo partly drawn) [compound 1918], the “Relative Viability (%) at 10 μM” value was 94%.

Same assay, conditions: Table 3, Formula VII antagonists; 10 μM compound plus toxic concentration of control agonist, CHO/Trp-p8 cells, 37° C.; ATP level relative to DMSO
With `COc1ccccc1N1CCN(CC(O)COC2CC(C)CCC2C(C)C)CC1.Cl.Cl` (stereo not drawn) [compound 36] the “Rel. Viab. (%) at 10 μM” value was 87%. For `O=[N+]([O-])c1cc(S(=O)(=O)C(F)(F)F)ccc1N1CCN(c2ccccc2)CC1` [compound 107], the “Rel. Viab. (%) at 10 μM” value was 98%. In the case of `Cc1ccc(C2C(=O)N(C3CCC(C)CC3)CC(=O)N2C2CCCC2)cc1` (stereo not drawn) [compound 1262], the “Rel. Viab. (%) at 10 μM” value is reported as 86%. `O=C1C(c2ccc(Cl)cc2)N(C2CCCCC2)C(=O)CN1C1CCCC1` (stereo not drawn) [compound 1284] was tested, and the “Rel. Viab. (%) at 10 μM” value was 95%. In the case of `O=C1c2ccccc2-c2onc3c(N4CCN(C5CCCCC5)CC4)cc(Nc4ccc5c(c4)OCCO5)c1c23` [compound 882], the “Rel. Viab. (%) at 10 μM” value is reported as 86%. `COc1ccc(N2CCN(CC(O)COC3CC(C)CCC3C(C)C)CC2)cc1.Cl.Cl` (stereo not drawn) [compound 93] was tested, and the “Rel. Viab. (%) at 10 μM” value was 111%. In the case of `c1ccc(CNc2nc(N3CCN(c4ccccc4)CC3)nc3ccccc23)cc1` [compound 67], the “Rel. Viab. (%) at 10 μM” value is reported as 102%. For `O=C1C(c2ccc(F)cc2Cl)N(C2CCCc3ccccc32)C(=O)CN1C1CCCCCC1` (stereo not drawn) [compound 1280], the “Rel. Viab. (%) at 10 μM” value was 87%. In the case of `Fc1ccc(N2CCN(c3ncnc4c3cnn4-c3ccccc3)CC2)cc1` [compound 159], the “Rel. Viab. (%) at 10 μM” value is reported as 95%. For `Cc1cc(N2CCN(c3cc(N4CCN(CCO)CC4)ccc3[N+](=O)[O-])CC2)c2ccccc2n1` [compound 74], the “Rel. Viab. (%) at 10 μM” value was 81%. For `c1ccc(Cn2ncc3c(N4CCN(c5ccccn5)CC4)ncnc32)cc1` [compound 13], the “Rel. Viab. (%) at 10 μM” value was 91%. `Clc1ccccc1N1CCN(c2ncnc3c2cnn3-c2ccccc2)CC1` [compound 51] was tested, and the “Rel. Viab. (%) at 10 μM” value was 100%. With `Cc1ccc(C(c2sc3nc(C)nn3c2O)N2CCN(C(c3ccccc3)c3ccccc3)CC2)cc1` (stereo not drawn) [compound 1019] the “Rel. Viab. (%) at 10 μM” value was 87%. `Cc1nc2sc(C(c3cccc(O)c3)N3CCN(C(c4ccccc4)c4ccccc4)CC3)c(O)n2n1` (stereo not drawn) [compound 1027] was tested, and the “Rel. Viab. (%) at 10 μM” value was 84%. In the case of `O=C1CN(c2nc3ccccc3c(=O)n2Cc2ccccc2)CC(=O)N1CCc1ccccc1` [compound 1069], the “Rel. Viab. (%) at 10 μM” value is reported as 86%. `O=[N+]([O-])c1ccc(N2CCN(c3ccc(C(F)(F)F)cc3[N+](=O)[O-])CC2)cc1NCc1ccccc1` [compound 27] was tested, and the “Rel. Viab. (%) at 10 μM” value was 87%. `O=C1c2ccccc2-c2onc3c(N4CCN(C5CCCCC5)CC4)cc(Nc4ccc5c(c4)OCO5)c1c23` [compound 881] was tested, and the “Rel. Viab. (%) at 10 μM” value was 82%. In the case of `Cc1nc2sc(C(c3cccc(F)c3)N3CCN(C(c4ccccc4)c4ccccc4)CC3)c(O)n2n1` (stereo not drawn) [compound 1026], the “Rel. Viab. (%) at 10 μM” value is reported as 92%. For `Cc1nc(N2CCOCC2)nc(N2CCN(c3ccccc3)CC2)c1[N+](=O)[O-]` [compound 69], the “Rel. Viab. (%) at 10 μM” value was 106%. In the case of `Cc1ccc(C)n1-c1ccc(N2CCN(c3ccccc3)CC2)c([N+](=O)[O-])c1` [compound 103], the “Rel. Viab. (%) at 10 μM” value is reported as 99%. `N#Cc1nc(COc2ccccc2F)oc1N1CCN(c2ccccc2)CC1` [compound 711] was tested, and the “Rel. Viab. (%) at 10 μM” value was 94%. For `c1ccc(Cc2nc(N3CCN(c4ccccn4)CC3)c3c4c(sc3n2)CCCC4)cc1` [compound 1323], the “Rel. Viab. (%) at 10 μM” value was 88%. With `Cc1nc2sc(C(c3cccs3)N3CCN(C(c4ccccc4)c4ccccc4)CC3)c(O)n2n1` (stereo not drawn) [compound 1039] the “Rel. Viab. (%) at 10 μM” value was 84%.

— US8389730B2, “Compositions and methods for the treatment of disease associated with TRP-P8 expression” (Dendreon Corporation, priority 2003, dated 2013)
